The source of these data is patent US8709741B2, “Methods of diagnosing a plasmodium infection” (priority 2009, dated 2014).

Like-named read-outs stand apart in the source and are kept apart here. Where only a bound is given, the exact number is not on record here.

What all share (format): cell-based
The subject of test [1] is P. falciparum FcB1 strain. The test can be described thus: In vitro chemosensitizing activity of PAF on hGX sPLA2 (response modification index). Particulars: fixed sub-inhibitory PAF 25 μM, 37.5 μM and 50 μM. The method, then: The effects of serial concentrations of PAF (platelet-activating factor) on the susceptibility of the P. falciparum FcB1 strain to GX sPLA2 were assessed in vitro. A P. falciparum culture (1% parasitaemia, 2% haematocrit) was incubated in a 96-well microplate with decreasing concentrations of the recombinant GX sPLA2 in the presence of a fixed, sub-inhibitory concentration of PAF. The response modification index (RMI) as a function of PAF concentration is represented. RMI is the ratio of the 50% inhibitory concentrations (IC50) for GX sPLA2 plus the concentration of PAF, and GX sPLA2 alone. An RMI of 1.0 represents no change in the IC50 for GX sPLA2 when combined with PAF. The RMI values<1.0 represent the degree of potentiation or synergism.
Quantitative analysis of the increased activity of recombinant hGX sPLA2 when combined with PAF was done by comparing concentration-response curves for hGX sPLA2 alone and in the presence of several fixed, sub-inhibitory concentrations of PAF. Effects of each fixed concentration of PAF on the response of the parasites (IC50) to hGX sPLA2 were expressed as the response modification index (RMI) (Oduola et al., 1998). The RMI was calculated by the following formula: RMI=IC50(A,B)/IC50(A), where drug A is hGX sPLA2 and B is PAF. An RMI of 1.0 represents no change in the IC50 for the recombinant hGX sPLA2 combined with PAF. […]

The test system of test [2] is P. falciparum FcB1/Colombian strain. Put plainly: Anti-Plasmodium activity assay (dose-response, 3H-hypoxanthine incorporation), culture with human serum. The conditions noted are these: read-out: IC50 on Plasmodium intra-erythrocytic development. The method, then: The chloroquine-resistant P. falciparum FcB1/Colombian strain was used. Under the following culture conditions, the in vitro life cycle of the FcB1 strain was 48 hours. Cultures were grown in complete medium consisting of RPMI 1640 (Life Technologies, Inc.) supplemented with 11 mM glucose, 27.5 mM NaHCO3, 100 UI/mL penicillin, 100 μg/mL streptomycin, adjusted to pH 7.4 before addition of heat-inactivated human serum (A+ blood group, 8% final) or Albumax II® (0.5% final), according to the procedure of Trager and Jensen (1976). Parasites were routinely grown at 37° C. in human A+ RBCs (Red blood cells) at a 2% haematocrit and 2-6% parasitemia, in a 3% CO2, 6% O2 and 91% N2 atmosphere. Semi-synchronized cultures were established by Sorbitol (Lambros) treatment. Highly synchronized cultures (4 hour-window synchronization) were obtained by successive Plamion (Pasvol) and Sorbitol treatments. Parasitaemia and stage distribution were determined by optical examination of Diff-Quick stained culture smears. Parasitaemia (expressed in percent) is hundred times the number of parasitized erythrocytes divided by the total number of erythrocytes.
Dried preparations of the purified recombinant human sPLA2s were re-suspended at high concentration (usually 50 μM) in RPMI 0.05% BSA, and then tested individually for their capacity to inhibit the in vitro intra-erythrocytic development of P. falciparum. Dose-response assays based on ^3H-hypoxanthine incorporation by growing parasites were performed as in Guillaume et al. (2004). Radioactivity was measured with a 1450 Microbeta counter (Wallac, Perkin Elmer). Percentage of growth inhibition was calculated from the parasite-associated radioactivity compared with control without sPLA2. Values for the IC50 were determined from dose-response curves.

In a further test the test system is P. falciparum. Put plainly: Involvement of enzymatic activity in GX sPLA2-induced inhibition of parasite growth (schizont-enriched culture, 24 h). The conditions noted are these: 37.5 μM LY329722 plus 50 nM GX sPLA2, 24 h. As to the method:
Parasitaemia (%) at t 0 h and t 24 h were determined from Diff Quick-stained smears. Y axis states increase of parasitaemia (A parasitaemia (%)), expressed as parasitaemia at t 24 h-parasitaemia at t 0 h;
Parasitaemia (%) before incubation, and after 24 h of incubation, was determined from Diff Quick-stained smears. Parasite growth was expressed as the percent delta of parasitaemia, using the following formula:
ΔP=[(Px−P0)/(P100−P0)]×100; where ΔP is in percent, P0 is the parasitaemia (%) in the initial culture, P100 is the parasitaemia (%) after 24 h in normal culture conditions, and Px is the parasitaemia (%) after 24 h in experimental conditions.

platelet-activating factor [PAF]: the “response modification index (RMI) = IC50(GX sPLA2 + PAF)/IC50(GX sPLA2)” value in test [1] was less than 1. In addition, the results for the IC50 in test [2] (serum PAF-AH inhibited by Pefabloc) and in test [2] (standard culture conditions) were 95 ± 2.8 µM and 82 ± 1.2 µM, respectively.

On to `CCc1c(C(=O)C(N)=O)c2c(OCC(=O)O)cc(C)cc2n1Cc1ccccc1` [LY329722, sodium [3-aminooxalyl-1-benzyl-2-ethyl-6-methyl-1H-indol-4-yloxy]-acetic acid], for which the “effect on GX sPLA2-induced inhibition of parasite growth” value in the test on P. falciparum is listed as “Inhibition of parasite growth was removed”.

Usually IC50 stands for the midpoint of a concentration-inhibition curve.
